Measured values as given in patent publication US20220241314A1, “COMPOSITIONS AND METHODS FOR TREATMENT OF HEPATITIS B VIRUS INFECTION” (priority 2019, published 2022).

Test system: HBV cccDNA
Experiment: Decay kinetics of established cccDNA and HBsAg secretion under treatment from 3 dpi to 20 dpi
Assay type: cell-based, HBV (Genotype D)
Details: HepG2-hNTCP, treatment from 3 dpi through 20 dpi
Description: (5A) HBV infection and treatment schedule. On day 0 HepG2-hNTCP cells were infected with HBV at moi of 1000 Geq/cell, incubated for 24 hr, and media was replaced. On day three the cells were harvested or treated with DMSO, ETV (500 nM), F7 (10 μM), poly-U/UC (100 ng/ml), or with ETC combination with F7 or poly-U/UC, PAMP. Cells were harvested at the indicated points over a 20-day time course. (5B), (5C) DNA was isolated by Hirt extract and subjected to Southern blot analysis using an HBV-specific DNA probe. Percentage values below each lane indicate the relative amount of cccDNA compared to day three control prior to each treatment. The positions of mass markers are indicated. (5D) cccDNA levels were measured by RT-qPCR. Relative cccDNA values to mitochondrial DNA (MT-CO3) are shown. Statistical significance was determined using Student's t test. Data are presented as mean standard deviation (SD), *P<0.01, **P<0.005, ***P<0.001 and ns=non-significant (E) Half-life of cccDNA from RT-qPCR analyses was estimated from the simultaneous fitting of three replicates under each treatment strategy. C(t) is the % values of cccDNA at time ‘t’ post-treatment, C(0) is the % values of cccDNA at the start of the treatment. (5F) HBsAg across the time course for each treatment series. Statistical significance as determined using Student's t test. Data are presented as mean standard deviations (SD), **P<0.005, and ns=non-significant.
ETV is a nucleoside analog that prevents the viral reverse transcription and replication of new synthesized HBV DNAs, thereby preventing the replenishment of cccDNA by de novo formation. ETV was applied to HBV-infected cultures at a 100-fold IC50 (Langley, D. R., et al. (2007). Inhibition of Hepatitis B Virus Polymerase by Entecavir. Journal of virology 81, 3992-4001) thereby allowing for the measurement of cccDNA half-life under conditions in which levels are sustained only from the initial cccDNA pool. Cells were then harvested over a treatment time course, and DNA extracts were analyzed by Southern blot and qPCR assay. […] J Hepatol 69, 1231-1241). […] Enhanced cccDNA decay kinetics by F7 treatment was also confirmed by RT-PCR analysis (FIG. 5D). […] Thus, F7 and poly-U/UC PAMP impart the therapeutic decay of established cccDNA.
Reverse transcription quantitative real time qPCR (RT-qPCR) analysis: Total cellular RNAs were extracted from cells using TRIZOL reagent and the manufacturers protocol (Invitrogen). cDNA was synthesized from the purified RNA by both random and oligo (dT) priming using iScript select cDNA synthesis kit (Biorad, Inc.). For HBV cccDNA expression analysis, total DNA was extracted using the DNeasy kit (QIAGEN). For selective cccDNA PCR analysis, isolated DNAs were treated with 10 Units of T5 exonuclease (NEB) for 30 min in 10 μl of reaction volume in 37° C., followed by heat-inactivation at 95° C. for 5 min and 4-fold dilution with Nuclease-free water. For extra-cellular HBV DNA quantification, an external HBV plasmid standard was used to program the PCR (Ko, C., et al. (2018), supra).

## C=C1[C@H](CO)[C@@H](O)C[C@@H]1n1cnc2c(=O)[nH]c(N)nc21 [ETV, Entecavir, reference compound]
  production and secretion of HBsAg: Neither ETV nor X RNA treatment of cells had any effect
ETV 500 nM, F7 10 μM, poly-U/UC 100 ng/ml
  cccDNA levels over treatment time course (Southern blot, qPCR): stably maintained cccDNA levels over the time course
